Reference: US11358931B2, “Selective androgen receptor modulators (SARMs) and uses thereof” (priority 2007, dated 2022)

What was measured:
[1] = 14-day oral toxicity study in Sprague Dawley rats; assay type: in vivo, rat; settings: Sprague-Dawley, rat, in vivo; SD rats, oral gavage once daily for 14 days; read-out: No-observed-adverse-effect level (NOAEL)
Method: (§1) A Sprague Dawley Rat model was used to study oral toxicity and toxicokinetics. Animals were assigned to groups by a stratified randomization scheme designed to achieve similar group mean body weights and the groups were randomly assigned to a dosing to provide control of bias.
(§2) All animals were dosed via oral gavage once daily for 14 days. The animals were evaluated for changes in clinical signs (mortality/morbidity observations, twice daily), cage side observations (general appearance and behavior), food consumption (quantitatively measured by weighing), body weights, clinical pathology indices including serum chemistry, hematology, coagulation and urinalysis, and other parameters. Blood samples were collected for toxicokinetics analysis from Groups 6-10 at various time points on Days 1 and 14 (Group 6 4 hours post dose; Groups 7-10 at 1, 4 and 12 hours or 2, 8 and 24 hours). The animals were fasted for at least 8 hours prior to blood collections for serum chemistry and urine collection. Serum chemistry parameters tested included alanine aminotransferase, total protein, aspartate aminotransferase, albumin, alkaline phosphatase, globulin, gamma-glutamyl-transferase, albumin/globulin ratio, lactate dehydrogenase, glucose, total bilirubin, cholesterol, urea nitrogen, triglycerides, creatinine, sodium, calcium, potassium, phosphorus and chloride. Hematology parameters analyzed included red blood cell count, reticulocyte count, hemoglobin concentration, red blood cell distribution width, mean corpuscular volume, mean platelet volume, mean corpuscular hemoglobin concentration, white blood cell count and differentials and mean corpuscular hemoglobin. Urinalysis parameters included color/character, ketones, specific gravity, bilirubin, pH, occult blood, protein, glucose and microscopics. Main study animals were euthanized on Day 15. At termination, a full necropsy was conducted and all tissues were collected, preserved, processes and examined microscopically from Groups 1 and 5, and target organs (liver and kidney) from Groups 2-4, by a veterinary pathologist certified by the American College of Veterinary Pathologists.
(§3) Control vehicle included Peg-400 (Sigma P-3265), Tween 80 (Sigma P-8074) and PVP-K30 (polyvinyl pyrrolidone or povidone K-30, Spectrum PN P1454) at a ratio of 90:5:5, w/w/w. Appropriate amounts of Compound 102 were added to the control vehicle to produce homogeneous dosing solutions/suspensions.

[2] = system: Sprague-Dawley rats; assay: 14-day oral toxicity study in Sprague Dawley rats; assay type: in vivo, rat
Method: as §1, §2, §3

For `N#Cc1ccc(N2CCC[C@@H]2[C@@H](O)C(F)(F)F)cc1C(F)(F)F` [Compound 102, R,R-4-(2-(1-Hydroxyl-2,2,2-trifluoroethyl)-pyrrolidinyl)-2-trifluoromethyl-benzonitrile], the NOAEL at 14 days [1] was 700 mg/kg/day, the “morbidity / early death” value ([2]; 10, 100, 300 or 700 mg/kg/day, 14 days) was “not associated with test article-related morbidity or early death” and the “macroscopic or microscopic changes (postmortem)” value ([2]; 10-700 mg/kg/day) was “no macroscopic or microscopic changes”. The urinalysis parameters ([2]; 10-700 mg/kg/day) was “no alterations”, the liver weight ([2]; both sexes, not correlated with hepatocellular size or liver pathology) was “Dose-dependent liver weight increases” and the food consumption ([2]; female animals, all dose levels) was “statistically significant increase in food consumption”. For the same compound, the “alkaline phosphatase values and phosphorus concentrations” value ([2]; female rats dosed at ≥10 mg/kg/day) was “minimally higher”, the “reticulocyte counts and red cell distribution width” value ([2]; female rats ≥10 mg/kg/day) was “higher reticulocyte counts and red cell distribution width” and the platelet counts ([2]; females ≥100 mg/kg/day, males 10 and 700 mg/kg/day) was “increased with statistical significance”. The prothrombin time ([2]; male and female animals, 300 and 700 mg/kg/day) was “minimal prolongation”, the body weight gain ([2]; male and female animals, versus control) was “increased weight gain compared to control animals” and the triglyceride concentrations ([2]; male rats ≥100 mg/kg/day, female rats ≥300 mg/kg/day) was “minimally lower”. For the same compound, the potassium levels ([2]; male rats ≥300 mg/kg/day, female rats ≥100 mg/kg/day) was “minimally higher” and the clinical observations ([2]; particularly female animals at ≥100 mg/kg/day) was “increased incidence and frequency in rough hair coat and nasal discharge”.
